Experimental data from US20040157802A1, “Anti-microbial agents derived from methionine sulfoximine analogues” (priority 2002, published 2004).
Values joined by “and” are separate entries in the source; they are usually repeats but may differ in a detail not shown here. Equal entries are not always repeated.

What was measured:
[1] = system: M. tuberculosis Erdman strain; conditions: in vivo
M. tuberculosis Erdman = assay: M. tuberculosis growth in broth culture (CFU); format: cell-based; conditions: for Inhibition of growth of M. tuberculosis in broth culture: 10, 100 or 1000 μM, 6 weeks; for Inhibition of growth of M. tuberculosis in broth culture / Inhibition of M. tuberculosis in broth culture relative to MSO: Example 7; for Efficacy against M. tuberculosis growth in broth culture in comparison with MSO: 10, 100, 1000 μM, Example 6, FIG. 4; for Inhibition of M. tuberculosis in broth culture relative to MSO: at each of 10, 100, 1000 μM
[2] = biological target: mammalian glutamine synthetase (MGS) (Homo sapiens, UniProt P15104); conditions: cited from earlier work
Sequence of mammalian glutamine synthetase (MGS) (P15104 2-373 limits assumed): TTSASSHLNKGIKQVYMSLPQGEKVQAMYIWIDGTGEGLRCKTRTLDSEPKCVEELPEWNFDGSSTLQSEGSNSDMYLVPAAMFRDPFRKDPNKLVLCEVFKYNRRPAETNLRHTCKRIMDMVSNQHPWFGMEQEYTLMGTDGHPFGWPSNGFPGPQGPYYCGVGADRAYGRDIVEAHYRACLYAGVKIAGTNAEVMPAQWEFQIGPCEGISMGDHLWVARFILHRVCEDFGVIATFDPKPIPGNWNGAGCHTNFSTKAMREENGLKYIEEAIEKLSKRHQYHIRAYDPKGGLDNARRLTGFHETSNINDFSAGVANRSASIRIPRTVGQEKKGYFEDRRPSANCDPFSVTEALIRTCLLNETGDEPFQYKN

[3] = biological target: T1, mammalian gamma-glutamylcysteine synthetase (γ-GCS) (Homo sapiens, UniProt P48506); conditions: cited from earlier work
T1 sequence (P48506 1-637): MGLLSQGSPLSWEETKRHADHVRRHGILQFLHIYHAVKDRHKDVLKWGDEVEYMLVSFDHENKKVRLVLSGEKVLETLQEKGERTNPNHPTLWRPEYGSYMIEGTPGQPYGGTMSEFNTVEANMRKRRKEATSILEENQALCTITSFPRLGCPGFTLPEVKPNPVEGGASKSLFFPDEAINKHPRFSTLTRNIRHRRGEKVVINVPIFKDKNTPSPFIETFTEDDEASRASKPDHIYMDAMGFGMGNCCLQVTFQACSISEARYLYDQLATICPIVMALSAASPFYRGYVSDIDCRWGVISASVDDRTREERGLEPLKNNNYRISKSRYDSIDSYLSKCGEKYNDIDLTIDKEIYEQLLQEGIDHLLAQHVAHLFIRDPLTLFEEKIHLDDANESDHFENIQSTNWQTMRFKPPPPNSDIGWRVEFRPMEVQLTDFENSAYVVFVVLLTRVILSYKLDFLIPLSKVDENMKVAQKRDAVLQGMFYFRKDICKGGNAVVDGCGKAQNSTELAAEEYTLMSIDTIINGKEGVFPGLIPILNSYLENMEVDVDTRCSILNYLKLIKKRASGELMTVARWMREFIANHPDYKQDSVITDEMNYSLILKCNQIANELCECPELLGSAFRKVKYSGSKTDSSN

[4] = cited from earlier work; for Estimtated Dose of L Isomer that Induces Convulsions in Mice (Relative to MSO): Table 1; for Estimtated Dose of L Isomer that Induces Convulsions in Mice (Relative to MSO) / Estimated Dose of L Isomer that Induces Convulsions in Mice (Relative to MSO): relative to MSO = 1; for Estimated Dose of L Isomer that Induces Convulsions in Mice (Relative to MSO): Table 3; for Dose that induces convulsions in mice relative to the dose of MSO: α-Et-MSO: convulsions in a minority of mice vs MSO in 100% of mice
[5] = BSO at doses that fully inhibit glutathione synthesis, guinea pigs; cited from earlier work
[6] = system: M. tuberculosis Erdman in human macrophages (THP-1 cells); conditions: 20, 200, 2000 μM, FIG. 5
[7] = cited from earlier work

**Q.** With `CS(=N)(=O)CC[C@H](N)C(=O)O` (stereo partly drawn) [MSO, L-methionine-SR-sulfoximine] as the compound, how does the “Fewer CFU of M. tuberculosis in organs than control animals” value [1] read?
**A.** approximately 1 log unit

**Q.** What about the “Protection from weight loss, drug administered alone” value [1] of the same compound?
**A.** protected animals from weight loss

**Q.** And the “Reduction of CFU of M. tuberculosis compared with control animals” value [1]?
**A.** ~0.7 logs

**Q.** And the “Weight loss compared with untreated control animals” value [1]?
**A.** protected from a precipitous decline in weight loss in the final week

**Q.** What about the “Reduction of CFU in the lungs and spleen compared with untreated controls” value ([1]; ip) of the same compound?
**A.** 2.5 logs

**Q.** What about the “Inhibition of growth of M. tuberculosis in broth culture” value (“Inhibition of growth of M. tuberculosis” for short) (M. tuberculosis Erdman) of the same compound?
**A.** inhibited M. tuberculosis

**Q.** What about the “MTD in the presence of ascorbate relative to MTD in the absence of ascorbate” value (guinea pig, in vivo) of the same compound?
**A.** 4 fold

**Q.** What about the “Maximum tolerated dose for guinea pigs infected with M. tuberculosis” value (guinea pig, in vivo) of the same compound?
**A.** 1.5 mg/kg/day

**Q.** What about the Tolerability (guinea pig, in vivo) of the same compound?
**A.** early weight loss

**Q.** What about the “Inhibition of mammalian GS” value [2] of the same compound?
**A.** inhibit mammalian GS

**Q.** What about the “Inhibition of γ-GCS” value [3] of the same compound?
**A.** inhibit γ-GCS

**Q.** And the “Estimtated Dose of L Isomer that Induces Convulsions in Mice (Relative to MSO)” value (“Estimtated Dose … (Relative to MSO)” below) [4]?
**A.** 1

**Q.** And the “Estimated Dose of L Isomer that Induces Convulsions in Mice (Relative to MSO)” value (“Estimated Dose … (Relative to MSO)” for short) [4]?
**A.** 1

**Q.** Which “Well tolerated total dose of ascorbate” value (i.p., guinea pigs, 9 mmoles kg^−1 day^−1 not well tolerated) does the source give for `O=C1O[C@H]([C@@H](O)CO)C(O)=C1O` [ascorbate] here?
**A.** 3 mmol/kg/day

**Q.** With `NNC(=O)c1ccncc1` [INH, isoniazid] as the compound, how does the “Protection from weight loss, drug administered alone” value [1] read?
**A.** protected animals from weight loss

**Q.** What about the “Reduction of CFU in lung and spleen below the level obtained with MSO” value [1] of the same compound?
**A.** ~1.5 logs and ~2.5 logs

**Q.** For `CCCCS(=N)(=O)CCC(N)C(=O)O` [BSO, D, L-Buthionine-SR-Sulfoximine, reference compound], which “Inhibition of growth of M. tuberculosis” value (M. tuberculosis Erdman) is on record?
**A.** did not

**Q.** What about the Animals killed [5] of the same compound?
**A.** 100%

**Q.** Which “Efficacy against M. tuberculosis growth in broth culture in comparison with MSO” value (M. tuberculosis Erdman) does the source give for `CC(N)(CCS(C)(=N)=O)C(=O)O` (racemic) [α-Me-MSO, α-methyl-DL-methionine-SR-sulfoximine] here?
**A.** as inhibitory to M. tuberculosis growth as MSO

**Q.** What about the “Inhibition of growth of M. tuberculosis” value (M. tuberculosis Erdman) of the same compound?
**A.** inhibited M. tuberculosis

**Q.** And the “Inhibition of M. tuberculosis in broth culture relative to MSO” value (M. tuberculosis Erdman)?
**A.** slightly less inhibitory than MSO

**Q.** What about the “Inhibition of M. tuberculosis growth in human macrophages” value [6] of the same compound?
**A.** readily inhibited

**Q.** What about the “Inhibition of mammalian GS” value [2] of the same compound?
**A.** inhibit mammalian GS

**Q.** And the “Inhibition of γ-GCS” value [3]?
**A.** inhibit γ-GCS

**Q.** And the Metabolism [7]?
**A.** resistant to metabolism

**Q.** What about the “Estimtated Dose … (Relative to MSO)” value [4] of the same compound?
**A.** 8

**Q.** What about the “Estimated Dose … (Relative to MSO)” value [4] of the same compound?
**A.** 8

**Q.** What about the “Dose that induces convulsions in mice relative to the dose of MSO” value [4] of the same compound?
**A.** ~8 fold

**Q.** With `CCC(N)(CCS(C)(=N)=O)C(=O)O` (racemic) [α-Et-MSO, α-ethyl-DL-methionine-SR-sulfoximine] as the compound, how does the “Efficacy against M. tuberculosis growth in broth culture in comparison with MSO” value (M. tuberculosis Erdman) read?
**A.** as inhibitory to M. tuberculosis growth as MSO

**Q.** And the “Inhibition of growth of M. tuberculosis” value (M. tuberculosis Erdman)?
**A.** inhibited M. tuberculosis

**Q.** And the “Inhibition of M. tuberculosis in broth culture relative to MSO” value (M. tuberculosis Erdman)?
**A.** as inhibitory or slightly more inhibitory than MSO

**Q.** And the “Inhibition of M. tuberculosis growth in human macrophages” value [6]?
**A.** readily inhibited

**Q.** What about the “Inhibition of mammalian GS” value [2] of the same compound?
**A.** inhibit mammalian GS

**Q.** What about the “Inhibition of γ-GCS” value [3] of the same compound?
**A.** specific to GS

**Q.** And the Metabolism [7]?
**A.** resistant to metabolism

**Q.** And the “Estimtated Dose … (Relative to MSO)” value [4]?
**A.** >16

**Q.** And the “Estimated Dose … (Relative to MSO)” value [4]?
**A.** ≧16

**Q.** And the “Dose that induces convulsions in mice relative to the dose of MSO” value [4]?
**A.** 16 fold
